Reference: patent US4785090A, “Cephalosporin derivatives” (Meiji Seika Kaisha, Ltd., priority 1984, dated 1988)
Structures can show the parent of a compound that is named as a salt. Where two headings read alike, the source gives them in different places.

Legend:
[1] = test system: Staphylococcus aureus Smith; experiment: Minimum Growth Inhibitory Concentration (MIC), Staphylococcus aureus Smith; format: cell-based; conditions: read-out: Minimum Growth Inhibitory Concentration (MIC)
Excerpt: (§1) Minimum Growth Inhibitory Concentration (MIC) mcg/ml
1. Staphylococcus aureus Smith

[2] = test system: Eshcerichia coli GN 206; experiment: Minimum Growth Inhibitory Concentration (MIC), Escherichia coli GN 206; format: cell-based
Excerpt: as §1
4. Eshcerichia coli GN 206

[3] = test system: Serratia marcescens No. 2; experiment: Minimum Growth Inhibitory Concentration (MIC), Serratia marcescens No. 2; format: cell-based
Excerpt: as §1
10. Serratia marcescens No. 2

[4] = test system: Proteus mirabilis GN 79; experiment: Minimum Growth Inhibitory Concentration (MIC), Proteus mirabilis GN 79; format: cell-based
Excerpt: as §1
6. Proteus mirabilis GN 79

[5] = test system: Proteus rettgeri GN624; experiment: Minimum Growth Inhibitory Concentration (MIC), Proteus rettgeri GN624; format: cell-based; conditions: Providencia rettgeri
Excerpt: as §1
9. Proteus rettgeri GN624

[6] = test system: Salmonella typhimurium LT2; experiment: Minimum Growth Inhibitory Concentration (MIC), Salmonella typhimurium LT2; format: cell-based; conditions: Salmonella enterica, read-out: Minimum Growth Inhibitory Concentration (MIC)
Excerpt: as §1
7. Salmonella typhimurium LT2

[7] = test system: Klebsiella pneumoniae PCI 602; experiment: Minimum Growth Inhibitory Concentration (MIC), Klebsiella pneumoniae PCI 602; format: cell-based
Excerpt: as §1
5. Klebsiella pneumoniae PCI 602

[8] = Serum concentration in mice after subcutaneous administration; format: in vivo; conditions: mouse, sc, subcutaneous 25 mg/kg
Method: The experiment was conducted by using 3 mice (average body weight 20 g) in each group, subcutaneously administering 25 mg/kg of the sample, taking blood samples at predetermined intervals, separating the serum and measuring the sample concentration by an antibacterial activity test using Escherichia coli as a testing bactera.

[9] = test system: Staphylococcus aureus 209PJC1; experiment: Minimum Growth Inhibitory Concentration (MIC), Staphylococcus aureus 209PJC1; format: cell-based
Excerpt: as §1
1. Staphylococcus aureus 209PJC1
as §1
2. Staphylococcus aureus 209 PJC1

[10] = test system: Proteus vulgaris GN 76; experiment: Minimum Growth Inhibitory Concentration (MIC), Proteus vulgaris GN 76; format: cell-based
Excerpt: as §1
10. Proteus vulgaris GN 76
as §1
8. Proteus vulgaris GN 76

[11] = test system: Escherichia coli NIHJ JC2; experiment: Minimum Growth Inhibitory Concentration (MIC), Escherichia coli NIHJ JC2; format: cell-based
Excerpt: as §1
3. Escherichia coli NIHJ JC2

[12] = GN206, read-out: Minimum Growth Inhibitory Concentration (MIC)
[13] = Serratia marcescens, NO.2, read-out: Minimum Growth Inhibitory Concentration (MIC)
[14] = Proteus mirabilis, GN79, read-out: Minimum Growth Inhibitory Concentration (MIC)
[15] = GN624, read-out: Minimum Growth Inhibitory Concentration (MIC)
[16] = Klebsiella pneumoniae, PCI602, read-out: Minimum Growth Inhibitory Concentration (MIC)
[17] = Staphylococcus aureus, 209PJC1, read-out: Minimum Growth Inhibitory Concentration (MIC)
[18] = Proteus vulgaris, GN76, read-out: Minimum Growth Inhibitory Concentration (MIC)
[19] = Escherichia coli, NIHJJC2, read-out: Minimum Growth Inhibitory Concentration (MIC)
[20] = Table 2, bacterium 7: Salmonella typhimurium LT2
[21] = Table 2, bacterium 1: Staphylococcus aureus Smith
[22] = GN206, Table 2, bacterium 4: Eshcerichia coli GN 206, read-out: Minimum Growth Inhibitory Concentration (MIC)
[23] = Table 2, bacterium 10: Serratia marcescens No. 2, read-out: Minimum Growth Inhibitory Concentration (MIC)
[24] = GN79, Table 2, bacterium 6: Proteus mirabilis GN 79, read-out: Minimum Growth Inhibitory Concentration (MIC)
[25] = Table 2, bacterium 9: Proteus rettgeri GN624, read-out: Minimum Growth Inhibitory Concentration (MIC)
[26] = PCI602, Table 2, bacterium 5: Klebsiella pneumoniae PCI 602, read-out: Minimum Growth Inhibitory Concentration (MIC)
[27] = Table 2, bacterium 2: Staphylococcus aureus 209 PJC1, read-out: Minimum Growth Inhibitory Concentration (MIC)
[28] = GN76, Table 2, bacterium 8: Proteus vulgaris GN 76, read-out: Minimum Growth Inhibitory Concentration (MIC)
[29] = NIHJJC2, Table 2, bacterium 3: Escherichia coli NIHJ JC2, read-out: Minimum Growth Inhibitory Concentration (MIC)

| SMILES | MIC ([1]; Staphylococcus aureus) [µg/mL] | MIC [2, 12] [µg/mL] | MIC [3, 13] [µg/mL] | MIC [4, 14] [µg/mL] | MIC [5, 15] [µg/mL] | MIC [7, 16] [µg/mL] | MIC [9, 17] [µg/mL] | MIC [10, 18] [µg/mL] | MIC [11, 19] [µg/mL] | MIC [6, 20] [µg/mL] | MIC [1, 21] [µg/mL] | MIC [2, 22] [µg/mL] | MIC [3, 23] [µg/mL] | MIC [4, 24] [µg/mL] | MIC [5, 25] [µg/mL] | MIC [7, 26] [µg/mL] | MIC [9, 27] [µg/mL] | MIC [10, 28] [µg/mL] | MIC [11, 29] [µg/mL] | also measured |
| --- | --- | --- | --- | --- | --- | --- | --- | --- | --- | --- | --- | --- | --- | --- | --- | --- | --- | --- | --- | --- |
| CO/N=C(\C(=O)N[C@@H]1C(=O)N2C(C(=O)O)=C(CSc3cc[n+](CC(=O)O)cc3)CS[C@H]12)c1csc(N)n1.[Na+] | 1.56 | 0.2 | 0.05 | 0.2 | 0.39 | 0.025 | 0.78 | 0.05 | 1.56 | – | – | – | – | – | – | – | – | – | – | MIC ([6]; TYPHIMURIUM): 0.025 µg/mL; concentration at 0.5 h ([8]; 1/2 hr): 12500 ng/mL; concentration at 0.25 h ([8]; 1/4 hr): 28000 ng/mL; concentration at 5 min ([8]; 1/12 hr): 20000 ng/mL; concentration at 1 h ([8]; 1 hr): 2200 ng/mL |
| Nc1nc(/C(=N/OCC(=O)O)C(=O)N[C@@H]2C(=O)N3C(C(=O)O)=C(CSc4cc[n+](CC(=O)O)cc4)CS[C@H]23)cs1.[Na+] [Example 29, (6R,7R)-7-[(Z)-2-(2-Aminothiazol-4-yl)-2-(carboxymethoxyimino)acetamido]-3-[(1-carboxymethylpyridinium-4-yl)thiomethyl]-ceph-3-em-4-carboxylic acid sodium salt] | 0.78 | 0.39 | 0.39 | 0.79 | 3.13 | 0.1 | 0.39 | 0.2 | 0.39 | 0.2 | – | – | – | – | – | – | – | – | – | – |
| C=CCO/N=C(\C(=O)N[C@@H]1C(=O)N2C(C(=O)O)=C(CSc3cc[n+](CC(=O)O)cc3)CS[C@H]12)c1csc(N)n1.[Na+] [Example 30, (6R,7R)-7-[(Z)-2-(2-Aminothiazol-4-yl)-2-(allyloxyimino)acetamido]-3-[(1-carboxymethylpyridinium-4-yl)thiomethyl]-ceph-3-em-4-carboxylic acid sodium salt] | 25 | 1.56 | 0.1 | 0.05 | 0.2 | 0.1 | 12.5 | 0.05 | 25 | 0.1 | – | – | – | – | – | – | – | – | – | – |
| CCO/N=C(\C(=O)N[C@@H]1C(=O)N2C(C(=O)[O-])=C(CSc3cc[n+](C(C)C(=O)O)cc3)CS[C@H]12)c1csc(N)n1 (stereo partly drawn) [Example 31, (6R,7R)-7-[(Z)-2-(2-Aminothiazol-4-yl)-2-ethoxyiminoacetamido]-3-[1-(1-carboxy-1-ethylpyridinium-4-yl)thiomethyl]-ceph-3-em-4-carboxylic acid sodium salt] | – | – | – | – | – | – | – | – | – | 0.2 | 3.13 | 0.39 | 0.39 | 0.78 | 0.78 | 0.2 | 3.13 | 1.56 | 6.25 | – |
| CCO/N=C(\C(=O)N[C@@H]1C(=O)N2C(C(=O)[O-])=C(CSc3cc[n+](C(C(=O)O)c4ccccc4)cc3)CS[C@H]12)c1csc(N)n1 (stereo partly drawn) [Example 32, (6R,7R)-7-[(Z)-2-(2-Aminothiazol-4-yl)-2-ethoxyiminoacetamido]-3-[(1-carboxybenzylpyridinium-4-yl)thiomethyl]-ceph-3-em-4-carboxylic acid sodium salt] | – | – | – | – | – | – | – | – | – | 0.39 | 1.56 | 0.78 | 0.78 | 3.13 | 0.39 | 0.2 | 1.56 | 0.78 | 0.39 | – |
| CCO/N=C(\C(=O)N[C@@H]1C(=O)N2C(C(=O)[O-])=C(CSc3cccc[n+]3CC(=O)O)CS[C@H]12)c1csc(N)n1 [Example 33, sodium salt] | – | – | – | – | – | – | – | – | – | 0.05 | 1.56 | 0.78 | 0.1 | 0.39 | 6.25 | 0.05 | 0.78 | 0.39 | 0.05 | – |
